What was measured:
[1] = target: T1, α1β3γ2 GABAA receptor, γ2R215H variant (Homo sapiens, UniProt P14867+P18507+P28472, R215H); assay: Automated patch clamp of GABA-elicited currents (SyncroPatch 384PE), γ2R215H; type: cell-based; settings: mean
T1 construct: expressed in transfected cells; host or cells: HEK293T
T1 sequence (P14867 28-456): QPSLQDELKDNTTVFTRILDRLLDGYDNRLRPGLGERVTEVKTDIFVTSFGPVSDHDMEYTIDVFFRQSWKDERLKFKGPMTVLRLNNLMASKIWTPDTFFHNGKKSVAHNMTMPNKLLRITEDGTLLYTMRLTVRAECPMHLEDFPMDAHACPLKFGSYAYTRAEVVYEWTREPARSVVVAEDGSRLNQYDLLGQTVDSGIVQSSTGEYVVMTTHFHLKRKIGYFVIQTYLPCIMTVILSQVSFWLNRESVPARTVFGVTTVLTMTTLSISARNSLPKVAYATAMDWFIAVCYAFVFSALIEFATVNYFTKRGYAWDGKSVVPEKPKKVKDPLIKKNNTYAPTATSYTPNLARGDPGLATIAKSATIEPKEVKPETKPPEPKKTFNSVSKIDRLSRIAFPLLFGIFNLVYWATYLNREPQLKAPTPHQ
T1 sequence (P28472 26-473 isoform P28472-2): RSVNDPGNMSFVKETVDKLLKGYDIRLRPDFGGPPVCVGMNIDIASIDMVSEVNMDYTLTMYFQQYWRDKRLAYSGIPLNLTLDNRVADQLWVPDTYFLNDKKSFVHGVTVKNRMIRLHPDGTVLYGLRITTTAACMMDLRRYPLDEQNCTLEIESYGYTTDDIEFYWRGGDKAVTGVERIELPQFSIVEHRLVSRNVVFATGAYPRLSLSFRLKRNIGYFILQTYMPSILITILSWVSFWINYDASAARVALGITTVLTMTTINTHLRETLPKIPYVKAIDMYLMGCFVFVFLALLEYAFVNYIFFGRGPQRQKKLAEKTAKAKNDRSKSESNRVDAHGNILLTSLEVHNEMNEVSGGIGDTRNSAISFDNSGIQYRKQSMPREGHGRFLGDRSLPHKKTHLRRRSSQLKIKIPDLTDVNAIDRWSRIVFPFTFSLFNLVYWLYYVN
T1 sequence (P18507 40-475 R215H): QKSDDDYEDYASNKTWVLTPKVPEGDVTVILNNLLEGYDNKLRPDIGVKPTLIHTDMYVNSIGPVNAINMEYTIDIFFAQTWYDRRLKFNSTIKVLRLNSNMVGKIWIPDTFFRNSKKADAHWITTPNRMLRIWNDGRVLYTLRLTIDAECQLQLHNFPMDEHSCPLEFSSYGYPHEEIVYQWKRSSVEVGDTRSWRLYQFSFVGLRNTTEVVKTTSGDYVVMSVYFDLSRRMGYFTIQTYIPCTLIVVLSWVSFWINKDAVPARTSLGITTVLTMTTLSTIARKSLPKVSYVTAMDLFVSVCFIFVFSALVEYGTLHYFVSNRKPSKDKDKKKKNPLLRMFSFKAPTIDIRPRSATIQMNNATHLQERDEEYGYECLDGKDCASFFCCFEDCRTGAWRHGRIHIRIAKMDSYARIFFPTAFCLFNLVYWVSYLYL
Protocol: (§1) The coding sequences of human α1 (GABRA1, NM_000806), β3 (GABRB3, NM_021912), and γ2 (GABRG2, NM_198904.2) GABAAR subunits were subcloned into the pcDNA3.1 expression vectors (Invitrogen, Waltham, MA, USA).
(§2) HEK293T cells (ATCC, CRL-11268) were cultured at 37 °C in a humidified 5% CO2 incubator and maintained in Dulbecco’s modified Eagle’s medium (Invitrogen) supplemented with 10% fetal bovine serum (Life Technologies, Carlsbad, CA, USA), and 100 IU/mL of penicillin/streptomycin (Life Technologies). For the expression experiments, 4 × 10^5 cells were transfected using polyethylenimine (PEI) reagent (40 kD, Polysciences, Warrington, PA, USA) at a DNA: to transfection reagent ratio of 1:2.5 and harvested 36 h after transfection. To express WT and variant α1β3γ2 receptors, a total of 3 µg of α1, β3, and γ2 (WT or mutant) subunit cDNAs were transfected at a ratio of 1:1:1 into 60 mm culture dishes. For the mock-transfected condition, an empty pcDNA3.1 vector was added for a final cDNA transfection amount of 3 μg. For the electrophysiology experiments, 2.5 × 10^5 cells were plated in 100 mm culture dishes and transfected after 24 h with 3 μg of cDNA of each α1, β3, γ2 (wild-type or mutant) subunit, using X-tremeGENE HP DNA transfection Reagent (Roche Diagnostics, Basel, Switzerland), following the manufacturer’s protocol. Recordings were obtained forty-eight hours after transfection.
Whole-cell patch clamp recordings were conducted according to the manufacturer’s standard procedure for the SyncroPatch 384 [31]. […] Using PatchControl 384, electrophysiological parameters, such as seal resistance, capacitance, and series resistance, were determined for each well after the application of a test pulse, and subsequently monitored over time. […] The currents were normalized to the maximal response of each well, and the concentration–response curves were calculated from single-point additions. The EC50 values for each variant or wild-type receptor were calculated across multiple wells for each experimental condition.

[2] = target: T2, α1β3γ2 GABAA receptor, wild-type (WT) γ2 subunit (Homo sapiens, UniProt P14867+P28472); assay: Automated patch clamp of GABA-elicited currents (SyncroPatch 384PE), WT receptor; type: cell-based; settings: mean
T2 construct: expressed in transfected cells; host or cells: HEK293T
Protocol: as §1, §2
Whole-cell patch clamp recordings were conducted according to the manufacturer’s standard procedure for the SyncroPatch 384 [31]. Whole-cell voltage-clamp recordings were performed at room temperature on HEK293T cells 48 h after transfection with GABAAR subunits, using the SyncroPatch 384PE (Nanion Technologies, Munich, Germany). Cells, at a concentration of 400,000 cells/mL, were harvested in suspension in external solution containing 140 mM of NaCl, 2 mM of CaCl2, 4 mM of KCl, 1 mM of MgCl2, 5 mM of glucose, and 10 mM of HEPES (pH 7.4 with NaOH, 298 mOsm). The cells were loaded in a multi-hole (4 holes per well) 384-well Nanion patch clamp (NPC) chip with a thick borosilicate glass bottom and an average resistance pore size of […]. Built-in electrophysiological protocols were used, and the data were digitized using PatchControl 384 (Nanion Technologies) application. Using PatchControl 384, electrophysiological parameters, such as seal resistance, capacitance, and series resistance, were determined for each well after the application of a test pulse, and subsequently monitored over time. […] The currents were normalized to the maximal response of each well, and the concentration–response curves were calculated from single-point additions. The EC50 values for each variant or wild-type receptor were calculated across multiple wells for each experimental condition.

[3] = 10–90% rise time, 1 mM GABA for 5 ms, HEK293T

T2 sequence (P18507 40-475 partner, one chain of several): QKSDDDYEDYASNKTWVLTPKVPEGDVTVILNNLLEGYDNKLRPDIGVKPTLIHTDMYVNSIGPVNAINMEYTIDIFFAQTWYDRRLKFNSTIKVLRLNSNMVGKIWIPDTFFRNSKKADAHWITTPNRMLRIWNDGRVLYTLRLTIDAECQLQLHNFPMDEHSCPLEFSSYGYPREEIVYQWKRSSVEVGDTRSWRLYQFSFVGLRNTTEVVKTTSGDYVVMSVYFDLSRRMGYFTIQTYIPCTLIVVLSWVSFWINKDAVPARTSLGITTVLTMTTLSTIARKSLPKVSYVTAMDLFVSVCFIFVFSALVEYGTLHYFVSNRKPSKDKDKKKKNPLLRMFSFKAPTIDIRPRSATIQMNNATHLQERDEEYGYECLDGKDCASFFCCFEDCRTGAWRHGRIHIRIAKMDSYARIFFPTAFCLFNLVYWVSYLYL

In the case of `NCCCC(=O)O` [GABA, γ-aminobutyric acid], the “IMAX (maximal GABA-evoked peak current)” value ([1]; 1 mM GABA for 5 ms, HEK293T) is reported as 0.61 nA, the “IMAX variant/IMAX WT” value ([1]; 1 mM GABA) is reported as 30.44% and the “Rise Time” value [1, 3] is reported as 31.68 ms. For the same molecule, the Deactivation ([2]; 1 mM GABA for 5 ms, HEK293T, -80 mV) was 199.9 ms, the “IMAX (maximal GABA-evoked peak current)” value ([2]; 1 mM GABA for 5 ms, HEK293T) was 2.00 nA and the “IMAX variant/IMAX WT” value ([2]; 1 mM GABA) was 100.00%. The “Rise Time” value [2, 3] was 13.67 ms.

Source: paper PMC10046037, “GABRG2 Variants Associated with Febrile Seizures” (Biomolecules, 2023)
